In patent publication US12605374B2, “Methods for drug screening and compositions useful for the inhibition of cell proliferation and/or cell survival” (The Brigham and Women's Hospital, Inc., priority 2019, dated 2026):

Key:
zebrafish embryos = assay: Respiration rate analysis (Seahorse XF24 oxygen consumption); format: in vivo; conditions: embryos from 5 hpf, versus DMSO control
Protocol: Analysis of embryonic respiration was performed using a Seahorse XF24 analyzer (Agilent). Embryos at 5 hours post fertilization were arrayed in E3 media at 3 per well in a 24-well standard Seahorse plate using an isolating mesh (as in Stackley et al^72). Each plate contained four replicates of each indicated compound of interest, as well as 4 control wells receiving the equivalent DMSO as contained in the indicated compound solution, and 4 wells with no embryos present to act as a baseline for oxygen content of the media. The sample baseline was read for 5 cycles (3 minute mix, 2 minute wait, 5 minute measure), then compounds were introduced in a single 40-cycle injection phase (3 minute mix, 2 minute wait, 5 minute measure). Measurement data were exported using Seahorse software (Agilent) and averaged over 3 experimental days.

[1] = target: T1, recombinant human Topoisomerase I (Homo sapiens, UniProt P11387); assay: Topoisomerase I and DNA binding gel electrophoresis assay; format: biochemical; conditions: concentrations up to 100 mM (so in the source), versus DMSO
T1 construct: purchased TopoGEN, Inc. TG2005H
T1 sequence (P11387 1-765): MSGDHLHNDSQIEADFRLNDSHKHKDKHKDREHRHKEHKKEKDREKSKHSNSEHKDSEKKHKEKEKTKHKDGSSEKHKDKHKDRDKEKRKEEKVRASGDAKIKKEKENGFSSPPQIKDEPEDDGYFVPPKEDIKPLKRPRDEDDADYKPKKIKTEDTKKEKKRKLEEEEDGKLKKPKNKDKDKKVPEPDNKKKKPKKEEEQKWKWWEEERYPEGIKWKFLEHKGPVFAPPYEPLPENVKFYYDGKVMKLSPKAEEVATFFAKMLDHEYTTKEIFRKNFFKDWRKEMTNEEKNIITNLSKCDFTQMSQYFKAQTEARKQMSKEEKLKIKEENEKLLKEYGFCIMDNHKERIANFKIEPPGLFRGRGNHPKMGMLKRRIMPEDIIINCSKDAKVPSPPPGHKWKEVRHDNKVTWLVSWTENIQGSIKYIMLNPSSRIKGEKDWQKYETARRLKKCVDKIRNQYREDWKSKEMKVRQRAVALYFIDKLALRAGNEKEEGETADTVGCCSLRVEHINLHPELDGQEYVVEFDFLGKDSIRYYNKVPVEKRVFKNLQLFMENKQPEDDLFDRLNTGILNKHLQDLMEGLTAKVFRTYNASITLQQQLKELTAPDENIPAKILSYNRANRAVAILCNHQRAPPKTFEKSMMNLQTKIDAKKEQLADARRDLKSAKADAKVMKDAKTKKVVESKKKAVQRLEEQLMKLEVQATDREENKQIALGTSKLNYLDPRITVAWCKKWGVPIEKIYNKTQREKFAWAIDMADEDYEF
Protocol: FIG. 12: Topoisomerase I and DNA binding assay for DA5. The effect of DA5 on Topoisomerase-mediated DNA unwinding is measured through a gel electrophoresis assay (see Methods).
0.5 ug of pHOT-1 supercoiled DNA (TopoGEN, Inc. TG2030-2) was combined with 2× Topoisomerase I assay buffer (50 mM Tris-HCL (ph7.9), 1 mM EDTA, 1 mM DTT, 20% (v/v) glycerol, 50 mM NaCl), nuclease free water and either DMSO vehicle control, m-AMSA positive control (100-1000 uM; TopoGEN, Inc. […] TG2005H) was added to treatments corresponding to lanes 3-12 with 2 ul of dilution buffer (5 mM Tris-HCL (pH 7.9), 1 mM EDTA, 1 mM DTT, 50% (v/v) glycerol, 500 mM NaCl) added to control treatments lacking enzyme (lanes 2, 13 and 14). Reactions were mixed and incubated at 37° C. for 30 minutes. Reactions were terminated with the addition of 20 ul nuclease free water and 50 ul of 1-butanol (water-saturated) followed by vortex and centrifugation at 13,000 rpm for 1 minute. The lower aqueous phase was removed and added to 50 ul chloroform/isoamyl alcohol (24/1) and 50 ul of 2×STEB buffer (40% (w/v) sucrose, 100 mM Tris-HCL (pH 8), 1 mM EDTA, 0.5 mg/ml bromophenol blue) followed by mixing and centrifugation at 13,000 rpm for 1 minute. […] The gel was stained with ethidium bromide for 15 minutes followed by de-staining in distilled water for 10 minutes. Gels were exposed and images acquired using the iBrightFL1000 gel documentation system (Invitrogen).

SMILES	respiration rate (oxygen consumption rate) (zebrafish embryos)	effect on Topoisomerase-mediated DNA unwinding (gel electrophoresis) [1]
CC[C@@H]1/C=C/C=C/C[C@H](C)[C@H](O)[C@](C)(O)C(=O)[C@H](C)[C@@H](O)[C@H](C)C(=O)[C@H](C)[C@@H](O)[C@H](C)/C=C/C(=O)O[C@H]2[C@@H](C)[C@@H](CC1)O[C@@]1(CC[C@@H](C)[C@@H](C[C@H](C)O)O1)[C@@H]2C [oligomycin A, reference compound]	exponential reduction in respiration rate stabilizing at a baseline rate	
CC[C@@]1(O)C(=O)OCc2c1cc1n(c2=O)Cc2cc3ccccc3nc2-1 [Camptothecin, reference compound]		dose-dependent effect on the amount of circular DNA present
